Test results published in publication PMC10746543, “Design principles for cyclin K molecular glue degraders” (Nature Chemical Biology, 2023).
Values joined by “and” are separate entries in the source; they are usually repeats but may differ in a detail not shown here. Equal values may be shown once. Read-outs that look alike come from different tables or passages of the source.

Experiments:
[1] = tested on: cyclin K–eGFP degradation reporter; assay: Cyclin K reporter stability analysis (dual-color cyclin K–eGFP reporter); assay type: cell-based, human
Outline: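 HEK293T–Cas9 cells carrying the cyclin K–eGFP reporter were seeded at 1 × 10^6 ml^−1 and exposed to drug or DMSO for 5 h. Flow cytometry gave geometric means of eGFP and mCherry in round, mCherry-positive cells. The eGFP/mCherry ratio was normalized to the mean of three DMSO controls.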

CDK9–cyclin T = biological target: T1, CDK9–cyclin T (Homo sapiens, UniProt P50750); assay: Lanthascreen kinase binding assay, CDK9; conditions: Supplementary Table 2; read-out: Lanthascreen IC50 [nM] CDK9
T1 construct: purchased Thermo Fisher
Description: (§1) Lanthascreen experiments were performed using commercially available reagents (Thermo Fisher) and according to the manufacturer’s instructions.

CDK2–cyclin A = biological target: T2, CDK2–cyclin A (Homo sapiens, UniProt P24941); assay: Lanthascreen kinase binding assay, CDK2
T2 construct: purchased Thermo Fisher
Description: as §1

cyclin K = assay: Label-free quantitative mass spectrometry in MDA-MB-231 cells, cyclin K; assay type: cell-based, human
Outline: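 MDA-MB-231 cells treated 5 h with 1 µM cyclin K degrader or DMSO. Lysates digested with LysC and trypsin, then analysed by label-free diaPASEF LC-MS on a TimsTOF Pro2 with directDIA search and MS1 precursor quantification. Protein abundances scaled and analysed with limma.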

T1 sequence (P50750 whole entry): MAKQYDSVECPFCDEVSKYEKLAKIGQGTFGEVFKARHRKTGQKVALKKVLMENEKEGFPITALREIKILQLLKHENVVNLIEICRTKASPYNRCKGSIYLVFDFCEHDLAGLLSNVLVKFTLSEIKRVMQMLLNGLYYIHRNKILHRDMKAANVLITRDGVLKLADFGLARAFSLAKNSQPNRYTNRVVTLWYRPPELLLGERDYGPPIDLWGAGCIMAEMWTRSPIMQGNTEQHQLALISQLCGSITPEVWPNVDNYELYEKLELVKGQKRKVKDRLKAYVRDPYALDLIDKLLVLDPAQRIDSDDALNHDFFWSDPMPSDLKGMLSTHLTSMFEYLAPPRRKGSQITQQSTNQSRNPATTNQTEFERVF
T1 sequence (O60563 whole entry partner): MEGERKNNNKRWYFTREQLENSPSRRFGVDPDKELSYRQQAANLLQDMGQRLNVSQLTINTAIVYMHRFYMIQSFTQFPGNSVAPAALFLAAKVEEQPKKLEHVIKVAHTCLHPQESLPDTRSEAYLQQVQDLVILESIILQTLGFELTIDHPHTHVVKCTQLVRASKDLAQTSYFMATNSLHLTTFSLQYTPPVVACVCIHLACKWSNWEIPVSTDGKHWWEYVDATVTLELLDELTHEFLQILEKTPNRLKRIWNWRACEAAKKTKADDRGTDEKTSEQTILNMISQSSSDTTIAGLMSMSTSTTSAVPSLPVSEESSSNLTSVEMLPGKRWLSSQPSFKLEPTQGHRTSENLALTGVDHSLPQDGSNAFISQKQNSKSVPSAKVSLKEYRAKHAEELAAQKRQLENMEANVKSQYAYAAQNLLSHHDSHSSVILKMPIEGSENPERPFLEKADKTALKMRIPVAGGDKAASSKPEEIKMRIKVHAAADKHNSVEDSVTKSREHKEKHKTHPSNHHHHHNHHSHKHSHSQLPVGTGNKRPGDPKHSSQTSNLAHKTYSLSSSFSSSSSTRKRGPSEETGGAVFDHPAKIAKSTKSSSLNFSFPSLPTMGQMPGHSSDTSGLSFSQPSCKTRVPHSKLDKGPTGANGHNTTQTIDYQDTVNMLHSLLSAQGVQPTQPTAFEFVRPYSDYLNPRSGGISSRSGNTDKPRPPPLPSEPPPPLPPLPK

Cn1cc(-n2cnc3c(NCc4nc5cc(Cl)c(Cl)cc5[nH]4)nc(N4CCOCC4)nc32)cn1 [SR-4835]
DC50 ([1]; Supplementary Fig. 4, HEK293T cycKeGFP reporter, 5h, n=2, read-out: DC50 printed on reporter plot): 39 nM
DC50 ([1]; source data sheet correlations, read-out: DC50): 14 nM
IC50 (CDK9–cyclin T): 3660 nM
Lanthascreen signal, sheet CDK2 (CDK2–cyclin A; Compound 0.038147 nM, raw replicates, experiment r13-r23): 0.0127 and 0.01284
Lanthascreen signal, sheet CDK2 (CDK2–cyclin A; Compound 0.038147 nM, raw replicates, experiment r36-r46): 0.01329 and 0.01256
Lanthascreen signal, sheet CDK2 (CDK2–cyclin A; Compound 0.038147 nM, raw replicates, experiment r48-r58): 0.01292 and 0.01236
Lanthascreen signal, sheet CDK2 (CDK2–cyclin A; Compound 0.152588 nM, raw replicates, experiment r13-r23): 0.01305 and 0.01264
Lanthascreen signal, sheet CDK2 (CDK2–cyclin A; Compound 0.152588 nM, raw replicates, experiment r36-r46): 0.01299 and 0.01282
Lanthascreen signal, sheet CDK2 (CDK2–cyclin A; Compound 0.152588 nM, raw replicates, experiment r48-r58): 0.01645 and 0.0151
Lanthascreen signal, sheet CDK2 (CDK2–cyclin A; Compound 0.610352 nM, raw replicates, experiment r13-r23): 0.01296 and 0.01232
Lanthascreen signal, sheet CDK2 (CDK2–cyclin A; Compound 0.610352 nM, raw replicates, experiment r36-r46): 0.01373 and 0.01242
Lanthascreen signal, sheet CDK2 (CDK2–cyclin A; Compound 0.610352 nM, raw replicates, experiment r48-r58): 0.01563 and 0.01504
Lanthascreen signal, sheet CDK2 (CDK2–cyclin A; Compound 1.02544 nM, raw replicates, experiment r1-r11): 0.01131 and 0.01009
Lanthascreen signal, sheet CDK2 (CDK2–cyclin A; Compound 3.15521 nM, raw replicates, experiment r1-r11): 0.009228 and 0.009357
Lanthascreen signal, sheet CDK2 (CDK2–cyclin A; Compound 4.57247 nM, experiment r25-r34): 0.01614
Lanthascreen signal, sheet CDK2 (CDK2–cyclin A; Compound 9.76563 nM, raw replicates, experiment r13-r23): 0.01326 and 0.01312
Lanthascreen signal, sheet CDK2 (CDK2–cyclin A; Compound 9.76563 nM, raw replicates, experiment r36-r46): 0.01252 and 0.01318
Lanthascreen signal, sheet CDK2 (CDK2–cyclin A; Compound 9.76563 nM, raw replicates, experiment r48-r58): 0.01463 and 0.01476
Lanthascreen signal, sheet CDK2 (CDK2–cyclin A; Compound 9.76563 nM, raw replicates, experiment r60-r70): 0.02088 and 0.02079 and 0.02078
Lanthascreen signal, sheet CDK2 (CDK2–cyclin A; Compound 13.7174 nM, experiment r25-r34): 0.01619
Lanthascreen signal, sheet CDK2 (CDK2–cyclin A; Compound 39.0625 nM, raw replicates, experiment r13-r23): 0.01273 and 0.01299
Lanthascreen signal, sheet CDK2 (CDK2–cyclin A; Compound 39.0625 nM, raw replicates, experiment r36-r46): 0.01285 and 0.01213
Lanthascreen signal, sheet CDK2 (CDK2–cyclin A; Compound 39.0625 nM, raw replicates, experiment r48-r58): 0.01551 and 0.01552
Lanthascreen signal, sheet CDK2 (CDK2–cyclin A; Compound 39.0625 nM, raw replicates, experiment r60-r70): 0.01951 and 0.02081 and 0.02075
Lanthascreen signal, sheet CDK2 (CDK2–cyclin A; Compound 41.1523 nM, experiment r25-r34): 0.01684
Lanthascreen signal, sheet CDK2 (CDK2–cyclin A; Compound 123.457 nM, experiment r25-r34): 0.01665
Lanthascreen signal, sheet CDK2 (CDK2–cyclin A; Compound 156.25 nM, raw replicates, experiment r13-r23): 0.01317 and 0.01374
Lanthascreen signal, sheet CDK2 (CDK2–cyclin A; Compound 156.25 nM, raw replicates, experiment r36-r46): 0.01372 and 0.0133
Lanthascreen signal, sheet CDK2 (CDK2–cyclin A; Compound 156.25 nM, raw replicates, experiment r48-r58): 0.01549 and 0.01505
Lanthascreen signal, sheet CDK2 (CDK2–cyclin A; Compound 156.25 nM, raw replicates, experiment r60-r70): 0.01961 and 0.02092 and 0.0201
Lanthascreen signal, sheet CDK2 (CDK2–cyclin A; Compound 370.37 nM, experiment r25-r34): 0.01637
Lanthascreen signal, sheet CDK2 (CDK2–cyclin A; Compound 625 nM, raw replicates, experiment r13-r23): 0.0132 and 0.01347
Lanthascreen signal, sheet CDK2 (CDK2–cyclin A; Compound 625 nM, raw replicates, experiment r36-r46): 0.01352 and 0.01293
Lanthascreen signal, sheet CDK2 (CDK2–cyclin A; Compound 625 nM, raw replicates, experiment r48-r58): 0.01526 and 0.01348
Lanthascreen signal, sheet CDK2 (CDK2–cyclin A; Compound 625 nM, raw replicates, experiment r60-r70): 0.01884 and 0.01787 and 0.01937
Lanthascreen signal, sheet CDK2 (CDK2–cyclin A; Compound 2500 nM, raw replicates, experiment r13-r23): 0.01229 and 0.01217
Lanthascreen signal, sheet CDK2 (CDK2–cyclin A; Compound 2500 nM, raw replicates, experiment r36-r46): 0.01331 and 0.01286
Lanthascreen signal, sheet CDK2 (CDK2–cyclin A; Compound 2500 nM, raw replicates, experiment r48-r58): 0.01476 and 0.01465
Lanthascreen signal, sheet CDK2 (CDK2–cyclin A; Compound 2500 nM, raw replicates, experiment r60-r70): 0.01706 and 0.01739 and 0.01756
Lanthascreen signal, sheet CDK2 (CDK2–cyclin A; Compound 3155.21 nM, raw replicates, experiment r1-r11): 0.009677 and 0.009716
Lanthascreen signal, sheet CDK2 (CDK2–cyclin A; Compound 3333.33 nM, experiment r25-r34): 0.01493
Lanthascreen signal, sheet CDK2 (CDK2–cyclin A; Compound 10000 nM, experiment r25-r34): 0.01253
Lanthascreen signal, sheet CDK2 (CDK2–cyclin A; Compound 10000 nM, raw replicates, experiment r13-r23): 0.01083 and 0.01088
Lanthascreen signal, sheet CDK2 (CDK2–cyclin A; Compound 10000 nM, raw replicates, experiment r36-r46): 0.01118 and 0.01139
Lanthascreen signal, sheet CDK2 (CDK2–cyclin A; Compound 10000 nM, raw replicates, experiment r48-r58): 0.01493 and 0.01454
Lanthascreen signal, sheet CDK2 (CDK2–cyclin A; Compound 10000 nM, raw replicates, experiment r60-r70): 0.01597 and 0.01433 and 0.01526
Lanthascreen signal, sheet CDK2 (CDK2–cyclin A; Compound 10002 nM, raw replicates, experiment r1-r11): 0.009692 and 0.009444
IC50 (CDK2–cyclin A; Lanthascreen, average, Extended Data Fig. 8, read-out: CDK2 IC50): > 10000 nM
IC50 (CDK2–cyclin A; Supplementary Table 2, read-out: Lanthascreen IC50 [nM] CDK2): > 10000 nM
cyclin K depletion, result in words (cyclin K; MDA-MB-231 cells, 1 µM, 5 h): more effective at depleting cyclin K than CR8
cyclin K abundance (label-free MS) (cyclin K; individual replicates, sheet EDF7): 69.2958 and 61.7731
cyclin K abundance (label-free MS) (cyclin K; label-free quantitative MS, replicate values): 69.2958 and 61.7731
CCNK peptide count (DMSO-normalised) (cyclin K; normalised to DMSO = 1, replicate values): 0.03786 and 0.03436
average CCNK peptide count (cyclin K; sheet EDF7): 65.5345
